Measurements from patent publication US20250161501A1, “Radiolabeled Compounds for Imaging of Fibroblast Activation Protein (FAP) and Treatment of FAP-Related Disorders” (Provincial Health Services Authority, priority 2022, published 2025).

Key:
FAP = molecular target: T1, FAP (Homo sapiens, UniProt Q12884); conditions: literature [25]; cited from earlier work
T1 sequence (Q12884 1-760): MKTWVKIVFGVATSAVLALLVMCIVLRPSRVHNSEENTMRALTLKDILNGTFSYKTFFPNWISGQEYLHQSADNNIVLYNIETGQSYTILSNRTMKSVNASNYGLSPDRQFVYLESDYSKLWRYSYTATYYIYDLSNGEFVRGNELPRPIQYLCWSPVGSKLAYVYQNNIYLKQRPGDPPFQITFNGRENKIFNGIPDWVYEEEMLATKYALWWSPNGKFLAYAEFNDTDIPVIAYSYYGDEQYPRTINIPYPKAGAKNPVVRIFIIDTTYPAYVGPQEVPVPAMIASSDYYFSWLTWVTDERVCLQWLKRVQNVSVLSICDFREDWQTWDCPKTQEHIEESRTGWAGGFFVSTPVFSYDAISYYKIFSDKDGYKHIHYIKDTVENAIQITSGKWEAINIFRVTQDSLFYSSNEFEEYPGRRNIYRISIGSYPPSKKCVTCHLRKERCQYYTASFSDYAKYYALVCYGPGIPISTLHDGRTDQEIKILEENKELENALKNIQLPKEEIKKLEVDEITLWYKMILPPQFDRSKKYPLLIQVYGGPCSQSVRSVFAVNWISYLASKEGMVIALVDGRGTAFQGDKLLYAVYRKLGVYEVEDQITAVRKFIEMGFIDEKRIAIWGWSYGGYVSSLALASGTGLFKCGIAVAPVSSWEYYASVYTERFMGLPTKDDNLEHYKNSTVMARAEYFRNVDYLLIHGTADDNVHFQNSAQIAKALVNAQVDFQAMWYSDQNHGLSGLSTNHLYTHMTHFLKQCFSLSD

[1] = system: HEK293T:hFAP tumor xenografts; experiment: Ex vivo biodistribution of 68Ga-labeled tracers in HEK293T:hFAP tumor-bearing mice; conditions: HEK293T:hFAP tumor xenograft mice, 1 h post-injection, Table 5, mean±SD
Protocol: All imaging and biodistribution studies were performed using male NOD-scidIL2Rg^null (NRG) mice and conducted according to the guidelines established by the Canadian Council on Animal Care and approved by Animal Ethics Committee of the University of British Columbia. For tumor inoculations, mice were anesthetized by inhalation with 2% isoflurane in oxygen and implanted subcutaneously with 7.5×10^6 HEK293T:hFAP or U87 cells below the left shoulder. Imaging and biodistribution studies were performed only after tumors grew to 5-8 mm in diameter.
For ex vivo biodistribution studies, mice were injected with -1-3 MBq of the ^68Ga-labeled tracer. Mice were allowed to recover and roam freely in the cages after injecting the tracer. […] The uptake in each organ/tissue was normalized to the injected dose and expressed as the percentage of the injected dose per gram of tissue (% ID/g).
Biodistribution data for ^68Ga-SB03178, ^68Ga-SB04033, and ^68Ga-FAPI-4 in mice bearing FAP tumor xenografts are presented in Tables 5-7. Data are presented as mean±SD % ID/g.

Biodistribution: Adrenal Glands [1]	Biodistribution: Blood [1]	Biodistribution: Bone [1]	Biodistribution: Brain [1]	Biodistribution: Fat [1]	Biodistribution: Heart [1]	Biodistribution: Kidneys [1]	Biodistribution: Liver [1]	Biodistribution: Lungs [1]	Biodistribution: Muscle [1]	Biodistribution: Pancreas [1]	Biodistribution: Spleen [1]	Biodistribution: Stomach [1]	Biodistribution: Testes [1]	Biodistribution: Tumor [1]	Structure (SMILES)	Tumor uptake over time (FAP)
–	–	–	–	–	–	–	–	–	–	–	–	–	–	–	N#C[C@@H]1CCCN1C(=O)CNC(=O)c1ccnc2ccc(OCCCN3CCN(C(=O)CN4CCN(CC(=O)O)CCN(CC(=O)O)CCN(CC(=O)O)CC4)CC3)cc12 [^68Ga-FAPI-2, metal not drawn]	reduced quickly over time
1.09 ± 0.31 % ID/g	1.09 ± 0.08 % ID/g	3.39 ± 1.03 % ID/g	0.05 ± 0.01 % ID/g	0.11 ± 0.02 % ID/g	0.35 ± 0.03 % ID/g	1.86 ± 0.10 % ID/g	0.37 ± 0.02 % ID/g	0.75 ± 0.09 % ID/g	0.68 ± 0.04 % ID/g	0.38 ± 0.04 % ID/g	0.57 ± 0.13 % ID/g	0.07 ± 0.02 % ID/g	0.29 ± 0.04 % ID/g	12.7±2.19 % ID/g	N#C[C@@H]1CC(F)(F)CN1C(=O)CNC(=O)c1ccnc2ccc(OCCCN3CCN(C(=O)CN4CCN(CC(=O)O)CCN(CC(=O)O)CCN(CC(=O)O)CC4)CC3)cc12 [^68Ga-FAPI-4, metal not drawn, reference compound]	reduced quickly over time
